Test results as given in patent publication EP0935964A1, “Pharmaceutical compositions containing NSAIDs and piperine” (PANACEA BIOTEC LIMITED, priority 1998, dated 1999).
Read-outs that look alike come from different tables or passages of the source.

What was measured:
[1] = Plasma levels of Nimesulide in rats after oral administration of the compositions (Experiment I, HPLC); type: in vivo, albino rats
Description: The rats were housed 5 per cage with food and water provided ad libidum. On the day of experimentation the rats were randomised into ten batches of 5 rats each. Four groups were formed. […] Group II consisted of four batches of five rats each. […] Rats of batch I from Group II were sacrificed 60 minutes post treatment after Chloroform anaesthesia. […] Blood was collected from the rats from the ventricle into heparinised tubes. Group III consisted of one batch of 5 rats, which received only Piperine at a dose level of 1.0mg/kg body wt. […] Blood was collected from the rats from the ventricle into heparinised tubes. Group IV consisted of 4 batches of 5 rats each. […] Rats of batch 1 from Group IV were sacrificed 60 minutes post treatment after Chloroform anaesthesia. […] Blood was collected from the rats from the ventricle into heparinised tubes. The blood samples were centrifuged at 3700 rpm and the plasma separated. […] Extracted benzene was evaporated in a water bath at 95°C and reconstituted with 100 µl of mobile phase and 10 µl was injected into the HPLC. Waters HPLC fitted with C18 µ Bondapack was used along with Waters UV-Vis detector (254nm). […] Unpaired student T test was applied on the data. Level of significance was fixed at p < 0.05.

[2] = cited from earlier work
[3] = cited from earlier work; remark: listed apart in the source
[4] = tested on: acetic acid induced writhing; details: mice, n = 8, Nimesulide 10mg/kg
Description: Pharmacokinetic studies were also performed in rats. […] The study design for acetic acid induced writhing in mice was as follows : Table II

[5] = rats, oral, Nimesulide 10 mg/kg (with Piperine 10mg/kg in the combination), n = 5
Description: The single test point pharmacokinetic studies were performed in two groups of rats. […] Rats were sacrificed at 90 minutes. post treatment and blood samples were analysed by HPLC.

[6] = in vivo; cited from earlier work
[7] = tested on: plasma proteins; details: cited from earlier work
[8] = formulations containing Piperine compared with those which did not contain Piperine; cited from earlier work

SMILES: O=C(/C=C/C=C/c1ccc2c(c1)OCO2)N1CCCCC1 [Piperine, (E, E) 1-[5-(1,3-benzodioxyl-5-yl)-1-oxo-2,4-pentadenyl] piperidine]
- Plasma levels of Nimesulide ([1]; only Piperine 1.0 mg/kg, no Nimesulide, column 120 min.): Nil
- pKa [2]: 12.22
- solubility ([3]; in benzene, chloroform, ether, ethyl acetate, dichloromethane, alcohol, acetic acid): soluble
- solubility ([3]; in water, pet. ether): insoluble

SMILES: CS(=O)(=O)Nc1ccc([N+](=O)[O-])cc1Oc1ccccc1 [Nimesulide, N-(4-nitro, 2-phenoxyphenyl) methanesulfonamide]
- Concentration of the drug in plasma ([1]; Nimesulide alone 1.8 mg/kg, 240 min post treatment): 4.6 ± 1.4 kg/mL
- Plasma levels of Nimesulide ([1]; oral suspension, Nimesulide 1.8 mg/kg (with Piperine 1.0 mg/kg in the combination), 60 min. post treatment): 5800 ± 1700 µg/mL
- Plasma levels of Nimesulide ([1]; oral suspension, Nimesulide 1.8 mg/kg (with Piperine 1.0 mg/kg in the combination), 120 min. post treatment): 7900 ± 2300 µg/mL
- Plasma levels of Nimesulide ([1]; oral suspension, Nimesulide 1.8 mg/kg (with Piperine 1.0 mg/kg in the combination), 240 min. post treatment): 4600 ± 1400 µg/mL
- Plasma levels of Nimesulide ([1]; oral suspension, Nimesulide 1.8 mg/kg (with Piperine 1.0 mg/kg in the combination), 360 min. post treatment): 2200 ± 1100 µg/mL
- % PROTECTION [4]: 54%
- Plasma concentration (90 min post treatment) [5]: 8818 µg/mL
- dose excreted unchanged in the urine [6]: 1-3%
- bound to plasma proteins [7]: 99%

SMILES: CO[C@H]1/C=C/O[C@@]2(C)Oc3c(C)c(O)c4c(O)c(c(/C=N/N5CCN(C)CC5)c(O)c4c3C2=O)NC(=O)/C(C)=C\C=C\[C@H](C)[C@H](O)[C@@H](C)[C@@H](O)[C@@H](C)[C@H](OC(C)=O)[C@@H]1C [Rifampicin]
- mean increase in AUC [8]: 37.6%

SMILES: NNC(=O)c1ccncc1 [Isoniazid]
- mean increase in AUC [8]: 131%

SMILES: NC(=O)c1cnccn1 [Pyrazinamide]
- mean increase in AUC [8]: 36%
